pEC50, pIC50: −log10 of the molar value.

For one test, the target named is T1, Tankyrase-1 (Homo sapiens, UniProt O95271).
T1 construct: GST-tagged Tankyrase-1 (1023-1327 aa)
Kind of test: Tankyrase 1 autoparsylation assay (HTRF enzyme assay). The class given is biochemical. Particulars: GST-tagged Tankyrase-1 (1023-1327 aa). Here is the method: (§1) Biochemical activity testing of Tankyrase 1 and 2: Autoparsylation assay
(§2) The autoparsylation assay is run in two steps: the enzymatic reaction in which GST-tagged Tankyrase-1, resp Tankyrase-2 transferred biotinylated ADP-ribose to itself from biotinylated NAD as co-substrate and the detection reaction where a time resolved FRET between cryptate labelled anti-GST bound to the GST tag of the enzyme and Xlent® labelled-streptavidin bound the biotin-parsylation residue is analysed. The autoparsylation activity was detectable directly via the increase in HTRF signal.
(§3) The autoparsylation assay is performed as 384-well HTRF® (Cisbio, Codolet, France) assay format in Greiner low volume nb 384-well microtiter plates and is used for high throughput screen. 250 nM GST-tagged Tankyrase-1 (1023-1327 aa), respectively about 250 nM GST-tagged Tankyrase-2 (873-1166 aa) and 5 μM bio-NAD (Biolog, Life science Inst., Bremen, Germany) as co-substrate are incubated in a total volume of 5 μl (50 mM HEPES, 4 mM Mg-chloride, 0.05% Pluronic F-68, 1.4 mM DTT, 0.5% DMSO, pH 7.7) in the absence or presence of the test compound (10 dilution concentrations) for 90 min at 30° C. The reaction is stopped by the addition of 1 μl 50 mM EDTA solution. 2 μl of the detection solution (1.6 μM SA-Xlent® (Cisbio, Codolet, France), 7.4 nM Anti-GST-K® (Eu-labelled anti-GST, Cisbio, Codolet, France) in 50 mM HEPES, 800 mM KF, 0.1% BSA, 20 mM EDTA, 0.1% CHAPS, pH 7.0) are added. After 1 h incubation at room temperature the HTRF is measured with an Envision multimode reader (Perkin Elmer LAS Germany GmbH) at excitation wavelength 340 nm (laser mode) and emission wavelengths 615 nm and 665 nm. The ratio of the emission signals is determined. The full value used is the inhibitor-free reaction. The pharmacological zero value used is XAV-939 (Tocris) in a final concentration of 5 μM. The inhibitory values (IC50) are determined using either the program Symyx Assay Explorer® or Condosseo® from GeneData.

The target of a further test is T2, Tankyrase-2 (Homo sapiens, UniProt Q9H2K2).
T2 construct: GST-tagged Tankyrase-2 (873-1166 aa)
T2 sequence (Q9H2K2 873-1166): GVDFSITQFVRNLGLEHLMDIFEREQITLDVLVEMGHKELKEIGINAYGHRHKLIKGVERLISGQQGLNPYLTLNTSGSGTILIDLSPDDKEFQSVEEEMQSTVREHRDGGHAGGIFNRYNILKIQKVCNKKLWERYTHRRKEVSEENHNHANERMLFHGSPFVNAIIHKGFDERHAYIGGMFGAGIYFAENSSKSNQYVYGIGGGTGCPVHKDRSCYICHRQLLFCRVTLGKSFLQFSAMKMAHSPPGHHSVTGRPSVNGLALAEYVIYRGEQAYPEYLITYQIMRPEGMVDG
Kind of test: Tankyrase 2 autoparsylation assay (HTRF enzyme assay). Particulars: GST-tagged Tankyrase-2 (873-1166 aa). The class given is biochemical. Here is the method: as §1, §2, §3

For a further test, the system named is tankyrase 1/2. Nature of the test: Cellular inhibition of tankyrase: increase of Axin2 level in DLD1 cells (Luminex). The class given is cell-based. The note with it: DLD1 colon carcinoma cells, 24 hours, read-out: EC50 tankyrase 1/2 (cell assay). The method, then:
Measurement of Cellular Inhibition of Tankyrase
Since Tankyrases have been described to modulate cellular level of Axin2 (Huang et al., 2009; Nature) the increase of Axin2 level is used as read-out for determination of cellular inhibition of Tankyrases in a Luminex based assay.
Cells of the colon carcinoma cell line DLD1 are plated in 96 well plates with 1.5×10^4 cells per well. Next day, cells are treated with a serial dilution of test compound in seven steps as triplicates with a final DMSO concentration of 0.3%. After 24 hours, cells are lysed in lysis buffer (20 mM Tris/HCl pH 8.0, 150 mM NaCl, 1% NP40, 10% Glycerol) and lysates are cleared by centrifugation through a 96 well filter plate (0.65 μm). Axin2 protein is isolated from cell lysates by incubation with a monoclonal anti-Axin2 antibody (R&D Systems #MAB6078) that is bound to fluorescent carboxybeads. Then, bound Axin2 is specifically detected with a polyclonal anti-Axin2 antibody (Cell Signaling #2151) and an appropriate PE-fluorescent secondary antibody. The amount of isolated Axin2 protein is determined in a Luminex^200 machine (Luminex Corporation) according to the manufacturer's instruction by counting 100 events per well. Inhibition of Tankyrase by test compounds results in higher levels of Axin2 which directly correlates with an increase of detectable fluorescence. As controls cells are treated with solvent alone (neutral control) and with a Tankyrase reference inhibitor IWR-2 (3E-06 M) which refers as control for maximum increase of Axin2. For analysis, the obtained data are normalized against the untreated solvent control and fitted for determination of the EC50 values using the Assay Explorer software (Accelrys).

The test system of a further test is DLD-1-cancer cells. Particulars: DLD-1 cells; Huang et al., 2009, Nature; cited from earlier work.
The target in the next test is T3, TNKS1 (Homo sapiens, UniProt O95271).
T3 construct: GST-tagged Tnks-1 (1023-1327 aa, prepared in-house); made in house
T3 sequence (O95271 1023-1327): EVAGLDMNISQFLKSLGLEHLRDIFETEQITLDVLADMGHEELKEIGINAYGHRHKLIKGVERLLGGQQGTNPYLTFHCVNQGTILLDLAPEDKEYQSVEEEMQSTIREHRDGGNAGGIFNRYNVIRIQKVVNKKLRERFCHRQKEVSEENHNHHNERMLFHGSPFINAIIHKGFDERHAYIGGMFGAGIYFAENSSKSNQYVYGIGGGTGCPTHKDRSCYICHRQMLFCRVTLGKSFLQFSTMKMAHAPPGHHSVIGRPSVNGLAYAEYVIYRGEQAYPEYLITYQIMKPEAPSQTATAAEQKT
Nature of the test: TNKS1 activity ELISA (autoparsylation assay). The class given is biochemical. Particulars: GST-tagged Tnks-1 (1023-1327 aa), luminescence. The method, then: Description of the TNKS1 and TNKS2 ELISA Assay
Biochemical activity testing of TNKS 1 and 2: activity ELISA (Autoparsylation assay)
For analysis of autoparsylation activity of TNKS 1 and 2 an activity ELISA iss performed: In the first step GST tagged TNKS is captured on a Glutathione coated plate. Then the activity assay with biotinylated NAD is performed in the absence/presence of the compounds. During the enzymatic reaction GST tagged TNKS transfers biotinylated ADP-ribose to itself from biotinylated NAD as co-substrate. For the detection streptavidin-HRP conjugate is added that binds to the biotinylated TNKS and is thereby captured to the plates. The amount of biotinylated resp. autoparsylated TNKS is detected with a luminescence substrate for HRP. The level of the luminescence signal correlats directly with the amount of autoparsylated TNKS and therefore with activity of TNKS.
The acitivity ELISA is performed in 384 well Glutathione coated microtiter plates (Express capture Glutathione coated plate, Biocat, Heidelberg, Germany). The plates are pre-equilibrated with PBS. Then the plates are incubated with 50 μl 20 ng/well GST-tagged Tnks-1 (1023-1327 aa, prepared in-house), respectively GST-tagged Tnks-2 (873-1166 aa, prepared in-house) in assay buffer (50 mM HEPES, 4 mM Mg-chloride, 0.05% Pluronic F-68, 2 mM DTT, pH 7.7) overnight at 4° C. The plates are washed 3 times with PBS-Tween-20. The wells are blocked by incubation at room temperature for 20 minutes with 50 μl blocking buffer (PBS, 0.05% Tween-20, 0.5% BSA). Afterwards the plates are washed 3 times with PBS-Tween-20. The enzymatic reaction is performed in 50 μl reaction solution (50 mM HEPES, 4 mM Mg-chloride, 0.05% Pluronic F-68, 1.4 mM DTT, 0.5% DMSO, pH 7.7) with10 μM bio-NAD (Biolog, Life science Inst., Bremen, Germany) as co-substrate in the absence or presence of the test compound (10 dilution concentrations) for 1 hour at 30° C. The reaction is stopped by 3 times washing with PBS-Tween-20. For the detection 50 μl of 20 ng/μl Streptavidin, HRP conjugate (MoBiTec, Göttingen, Germany) in PBS/0.05% Tween-20/0.01% BSA are added and the plates are incubated for 30 minutes at room temperature. After three times washing with PBS-Tween-20 50 μl of SuperSignal ELISA Femto Maximum sensitivity substrate solution (ThermoFisherScientific (Pierce), Bonn, Germany) are added. Following a 1 minute incubation at room temperature luminescence signals are measured with an Envision multimode reader (Perkin Elmer LAS Germany GmbH) at 700 nm. The full value used is the inhibitor-free reaction. The pharmacological zero value used is XAV-939 (Tocris) in a final concentration of 5 μM. The inhibitory values (IC50) are determined using either the program Symyx Assay Explorer® or Condosseo® from GeneData.

T1 sequence (O95271 1023-1327): as above

For `CC(C)(O)c1ccc(-c2cc3ccc(Cl)cc3c(=O)[nH]2)cc1` [Compound A25, 7-chloro-3-[4-(1-hydroxy-1-methyl-ethyl)phenyl]-2H-isoquinolin-1-one], the pIC50 against Tankyrase-1 is > 6.52; on Tankyrase-2, 5.52 to 6.52. Also, the pEC50 in the test with tankyrase 1/2 is 5.52 to 6.52.
`COC(=O)c1ccc(-c2cc3ccccc3c(=O)[nH]2)cc1` [Compound A2, 4-(1-oxo-1,2-dihydro-isoquinolin-3-yl)-benzoic acid methyl ester]: the pIC50 against Tankyrase-1 and at Tankyrase-2 was > 6.52 throughout. In addition, the pEC50 in the test with tankyrase 1/2 was 5.52 to 6.52.
As to `CC1(c2ccc(-c3cc4ccc(F)cc4c(=O)[nH]3)cc2)CCCO1` (stereo not drawn) [Compound A21, 7-fluoro-3-[4-(2-methyltetrahydrofuran-2-yl)phenyl]-2H-isoquinolin-1-one], the negative-log IC50 (pIC50) was > 6.52 at Tankyrase-1 and 5.52 to 6.52 against Tankyrase-2. In the test on tankyrase 1/2, the pEC50 is 5.52 to 6.52.
Take `CC(C)(F)c1ccc(-c2cc3ccccc3c(=O)[nH]2)cc1` [Compound A13, 3-[4-(1-fluoro-1-methyl-ethyl)-phenyl]-2H-isoquinolin-1-one]: the negative-log IC50 (pIC50) against Tankyrase-1 was > 6.52; against Tankyrase-2, 5.52 to 6.52. Also, the pEC50 with tankyrase 1/2 is 5.52 to 6.52.
As for `Cc1ccc(-c2cc3c(C(F)(F)F)cccc3c(=O)[nH]2)cc1` [Compound A30, 3-(p-tolyl)-5-(trifluoromethyl)-2H-isoquinolin-1-one], the pIC50 was 5.52 to 6.52 against Tankyrase-1 and 4.30 to 5.52 against Tankyrase-2.
`Cn1cc(-c2ccc(-c3cc4cnccc4c(=O)[nH]3)cc2)cn1` [Compound A19, 3-[4-(1-Methyl-1H-pyrazol-4-yl)-phenyl]-2H-[2,6]naphthyridin-1-one]: the pIC50 against Tankyrase-1 and on Tankyrase-2 was 5.52 to 6.52 each time.
`Oc1nc(-c2ccc(C(F)(F)F)cc2)nc2c1CSCC2` [XAV939]: in the test with DLD-1-cancer cells, the “growth of DLD-1-cancer cells” value is “inhibits growth”.
Turning to `CC(C)(C)c1ccc(-c2cc3cnccc3c(=O)[nH]2)cc1` [Compound A1, 3-(4-tert-butyl-phenyl)-2H-[2,6]naphthyridin-1-one], the pIC50 at Tankyrase-1 was > 6.52; against Tankyrase-2, 5.52 to 6.52; against TNKS1, > 6.52. Besides, the pEC50 in the test on tankyrase 1/2 is > 6.52.
In the case of `Cc1ccc2cc(-c3ccc(C(C)(C)O)cc3)[nH]c(=O)c2c1` [Compound A7, 3-[4-(1-hydroxy-1-methyl-ethyl)-phenyl]-7-methyl-2H-isoquinolin-1-one], the negative logarithm of the IC50 (pIC50) on Tankyrase-1 and at Tankyrase-2 was 5.52 to 6.52 in each case. Further, the pEC50 with tankyrase 1/2 was 5.52 to 6.52.
In the case of `COC(=O)c1ccc(-c2cc3ccc(F)cc3c(=O)[nH]2)cc1` [Compound A4, 4-(7-Fluoro-1-oxo-1,2-dihydro-isoquinolin-3-yl)-benzoic acid methyl ester], the negative-log IC50 (pIC50) at Tankyrase-1 and against Tankyrase-2 was 5.52 to 6.52 throughout. For the same compound, the pEC50 with tankyrase 1/2 is 5.52 to 6.52.
With `Cn1cc(-c2ccc(-c3cc4ccc(Cl)cc4c(=O)[nH]3)cc2)cn1` [Compound A32, 7-chloro-3-[4-(1-methyl-1H-pyrazol-4-yl)-phenyl]-2H-isoquinolin-1-one], the pIC50 on Tankyrase-1 is > 6.52; at Tankyrase-2, 5.52 to 6.52. For the same compound, the pEC50 in the test on tankyrase 1/2 is 5.52 to 6.52.
With `O=c1[nH]c(-c2ccc(CO)cc2)cc2ccccc12` [Compound A8, 3-(4-hydroxymethyl-phenyl)-2H-isoquinolin-1-one], the negative logarithm of the IC50 (pIC50) on Tankyrase-1 was > 6.52; against Tankyrase-2, 5.52 to 6.52. In the test on tankyrase 1/2, the pEC50 is > 6.52.

The record behind these values is patent US9376433B2, “(AZA-)isoquinolinone derivatives” (MERCK PATENT GMBH, priority 2012, dated 2016).
